Laboratory results as given in patent publication US7811760B2, “Vector and method for detecting the change in transcription amount” (priority 2006, dated 2010).

Biological target: T1, aryl hydrocarbon receptor (Rattus norvegicus, UniProt P41738, Q794H)
T1 construct: The SD-line rat AhR gene-coding region was amplified from the reverse-transcribed sample by means of PCR; V5-His (C-terminal tag of vector pcDNA4/V5-His B); expressed in transfected cells; host or cells: mouse neuroblastoma Neuro2a, transient transfection with LIPOFECTAMINE 2000
T1 sequence (P41738 10-853 Q794H): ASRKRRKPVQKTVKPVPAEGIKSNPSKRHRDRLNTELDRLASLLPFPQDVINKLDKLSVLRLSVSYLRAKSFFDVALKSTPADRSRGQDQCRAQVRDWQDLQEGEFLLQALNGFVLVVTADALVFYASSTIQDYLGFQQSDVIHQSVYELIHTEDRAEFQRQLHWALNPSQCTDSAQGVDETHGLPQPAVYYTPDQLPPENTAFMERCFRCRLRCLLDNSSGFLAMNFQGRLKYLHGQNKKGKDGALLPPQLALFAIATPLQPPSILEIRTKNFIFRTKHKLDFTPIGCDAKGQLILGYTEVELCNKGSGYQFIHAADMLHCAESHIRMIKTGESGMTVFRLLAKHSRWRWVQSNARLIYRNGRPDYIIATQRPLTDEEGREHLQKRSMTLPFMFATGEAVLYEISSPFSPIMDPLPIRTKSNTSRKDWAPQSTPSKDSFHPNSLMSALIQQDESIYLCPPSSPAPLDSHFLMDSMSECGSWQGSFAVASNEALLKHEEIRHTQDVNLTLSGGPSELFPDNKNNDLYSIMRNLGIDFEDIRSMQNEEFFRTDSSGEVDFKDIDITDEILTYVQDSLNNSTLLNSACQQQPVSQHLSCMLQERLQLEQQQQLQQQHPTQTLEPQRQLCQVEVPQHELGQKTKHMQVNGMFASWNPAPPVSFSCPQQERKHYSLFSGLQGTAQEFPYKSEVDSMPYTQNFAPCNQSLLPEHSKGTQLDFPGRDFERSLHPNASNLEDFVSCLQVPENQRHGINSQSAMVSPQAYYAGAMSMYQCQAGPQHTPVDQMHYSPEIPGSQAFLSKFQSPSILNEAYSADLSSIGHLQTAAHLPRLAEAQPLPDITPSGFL
Test: Reporter gene assay in Neuro2a with pSV40E100/Luc and pTHE100/Luc (SEQ ID No: 3)
Format: cell-based, SD-line rat
Settings: 10 nM TCDD; pTHE100/Luc compared with pSV40E100/Luc
Method: The TH transcriptional regulatory region of SEQ ID No: 3 (−300 to −200 bp) was used in Example 6. The TH transcriptional regulatory region ranging from −300 to −200 position was prepared by PCR using the 500-bp size of TH transcriptional regulatory region as a template. The following primers were used.
Recognition sequences for restriction enzymes KpnI (for forward primer) and NheI (for reverse primer) were added to the terminal of the respective primers, for the purpose of facilitating incorporation of the PCR amplified fragment into the vector. The region of SEQ ID No: 3 was amplified by using Pyrobest DNA polymerase. The amplified DNA fragment was digested with restriction enzymes KpnI and NheI, and subjected to electrophoresis on agarose. The corresponding band was purified with a QIAQUICK Gel Extraction Kit, and incorporated into PGV-P2 vector previously digested with KpnI and NheI, to obtain a recombinant vector pSV40E100/Luc. The vector PGV-P2 used contains an SV40 early promoter as its promoter region.
In addition, the region of SEQ ID No: 5 (mouse TH gene core promoter region) was amplified by PCR using a forward primer: 5′-[…]-3′ (SEQ ID No: 27) and a reverse primer: 5′-[…]-3′ (SEQ ID No: 28), and using a region of approximately 500 by upstream of the TH gene as the template. […]

`Clc1cc2c(cc1Cl)Oc1cc(Cl)c(Cl)cc1O2` [TCDD, 2,3,7,8-tetrachlorodibenzo-p-dioxine] was tested, and the “activity in response to test substance, TH gene core promoter versus SV40 early promoter” value was “higher activity in response to a test substance”.
